ChEMBL document CHEMBL1201862, “PubChem BioAssay data set” (2004)
Activity calls are given as the source filed them. Cut-off read from the data, not from the text of the source: actives have a measured IC50 and inactives only a lower limit.

Molecular target: Envelope glycoprotein gp160 (Human immunodeficiency virus 1, UniProt Q6QLK5)
Test: inhibitors of HIV fusion peptide binding, primary screen, biochemical, uHTS, fluorescence dequenching (AID 1986)

Sequence of Envelope glycoprotein gp160 (Q6QLK5 whole entry, the tested form may be a part): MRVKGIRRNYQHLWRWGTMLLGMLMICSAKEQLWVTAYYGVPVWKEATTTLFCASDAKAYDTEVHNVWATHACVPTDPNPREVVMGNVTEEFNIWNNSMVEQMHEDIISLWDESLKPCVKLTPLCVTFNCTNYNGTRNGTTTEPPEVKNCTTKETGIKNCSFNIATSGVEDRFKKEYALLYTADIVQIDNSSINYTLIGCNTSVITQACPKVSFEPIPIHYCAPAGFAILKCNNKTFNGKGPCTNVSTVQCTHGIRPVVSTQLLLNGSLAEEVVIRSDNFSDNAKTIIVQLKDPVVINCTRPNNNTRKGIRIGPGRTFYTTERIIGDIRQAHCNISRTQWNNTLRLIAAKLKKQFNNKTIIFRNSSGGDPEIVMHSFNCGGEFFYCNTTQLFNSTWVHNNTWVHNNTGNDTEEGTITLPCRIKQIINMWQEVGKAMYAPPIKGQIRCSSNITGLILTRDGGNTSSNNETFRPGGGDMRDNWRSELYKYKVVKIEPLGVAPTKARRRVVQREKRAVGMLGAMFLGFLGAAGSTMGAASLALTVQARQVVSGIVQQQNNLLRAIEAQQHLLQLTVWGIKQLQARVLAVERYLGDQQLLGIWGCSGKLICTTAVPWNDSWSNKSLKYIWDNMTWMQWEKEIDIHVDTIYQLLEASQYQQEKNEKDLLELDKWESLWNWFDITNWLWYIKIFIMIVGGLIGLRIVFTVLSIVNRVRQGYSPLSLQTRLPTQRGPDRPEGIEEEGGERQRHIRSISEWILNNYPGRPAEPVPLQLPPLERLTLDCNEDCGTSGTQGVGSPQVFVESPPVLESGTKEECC

Question: With O=C(CN1C(=O)/C(=C2\SC(=S)N(CCS(=O)(=O)O)C2=O)c2ccccc21)Nc1cccc(Br)c1 as the compound, how does the IC50 read?
Answer: 9.81 µM (active)
